Assay results from the supplement of paper PMC10307832.

What was measured:
Experiment in all cases: relative viability (nuclei count vs DMSO), 5 days (fraction); higher = more cells survive
Vandetanib + Lapatinib = compound: COc1cc2/c(=N/c3ccc(Br)cc3F)nc[nH]c2cc1OCC1CCN(C)CC1 [Vandetanib] + CS(=O)(=O)CCNCc1ccc(-c2ccc3ncnc(Nc4ccc(OCc5cccc(F)c5)c(Cl)c4)c3c2)o1 [Lapatinib] (partner 2 µM)
Method in brief: (§1)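 A single step with final 0.05% Triton X-100, 1% formaldehyde and 1 ug/ml Hoechst fixed the cells and stained nuclei 5 days after treatment. Lung cancer cell lines in 1536-well plates had been treated by pin tool the day after seeding with one drug alone or a fixed anchor-drug dose plus five library-drug doses (not always all listed) in √10 steps, and nuclei were counted on 4× images. Relative viability is the ratio of nuclei in treated wells to nuclei in vehicle wells, taken as the median of duplicate plates.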

[1] = compound: C1=CC=C2C(=C1)N=C(S2)C(C#N)C3=NC(=NC=C3)NCCC4=CN=CC=C4 + CC(C)C[C@H](NC(=O)[C@H](Cc1ccccc1)NC(=O)c1cnccn1)B(O)O [Bortezomib] (partner 0.002 µM)
Method in brief: as §1

CUDC-101 + Linsitinib = compound: C#Cc1cccc(Nc2ncnc3cc(OC)c(OCCCCCCC(=O)NO)cc23)c1 [CUDC-101] + C[C@]1(O)C[C@@H](c2nc(-c3ccc4ccc(-c5ccccc5)nc4c3)c3c(N)nccn32)C1 [Linsitinib] (partner 1 µM)
Method in brief: as §1

[2] = compound: C1=CC=C2C(=C1)N=C(S2)C(C#N)C3=NC(=NC=C3)NCCC4=CN=CC=C4 + Cc1cc(Nc2cc(N3CCN(C)CC3)nc(Sc3ccc(NC(=O)C4CC4)cc3)n2)n[nH]1 [Tozasertib] (partner 0.1 µM)
Method in brief: as §1

| Cell Line | relative viability (Vandetanib + Lapatinib; first compound 0.02 µM) | relative viability (Vandetanib + Lapatinib; first compound 0.06325 µM) | relative viability (Vandetanib + Lapatinib; first compound 0.2 µM) | relative viability (Vandetanib + Lapatinib; first compound 0.6325 µM) | relative viability (Vandetanib + Lapatinib; first compound 2 µM) | relative viability ([1]; first compound 0.005 µM) | relative viability ([1]; first compound 0.01581 µM) | relative viability ([1]; first compound 0.05 µM) | relative viability ([1]; first compound 0.1581 µM) | relative viability ([1]; first compound 0.5 µM) | relative viability (CUDC-101 + Linsitinib; first compound 0.01 µM) | relative viability (CUDC-101 + Linsitinib; first compound 0.03162 µM) | relative viability (CUDC-101 + Linsitinib; first compound 0.1 µM) | relative viability (CUDC-101 + Linsitinib; first compound 0.3162 µM) | relative viability (CUDC-101 + Linsitinib; first compound 1 µM) | relative viability ([2]; first compound 0.005 µM) | relative viability ([2]; first compound 0.01581 µM) | relative viability ([2]; first compound 0.05 µM) | relative viability ([2]; first compound 0.1581 µM) | relative viability ([2]; first compound 0.5 µM) |
| --- | --- | --- | --- | --- | --- | --- | --- | --- | --- | --- | --- | --- | --- | --- | --- | --- | --- | --- | --- | --- |
| 201T | 0.968 | 1.03 | 1.03 | 0.994 | 1.05 | 1.1 | 1.09 | 1.09 | 1.09 | 1.11 | 1.05 | 0.93 | 0.978 | 1.05 | 0.781 | 0.788 | 0.964 | 0.941 | 0.929 | 0.837 |
| A549 | 1.05 | 0.935 | 0.905 | 1.01 | 0.946 |  |  |  |  |  | 0.634 | 0.444 | 0.537 | 0.731 | 0.487 |  |  |  |  |  |
| A-427 | 0.968 | 1.02 | 1.14 | 1.01 | 0.74 | 0.934 | 1.07 | 0.968 | 1.02 | 0.974 | 1.09 | 1.05 | 1.05 | 1.11 | 1.05 | 0.203 | 0.181 | 0.222 | 0.227 | 0.203 |
| ABC-1 | 1.48 | 1.29 | 1.12 | 1.37 | 0.961 | 0.348 | 0.292 | 0.262 | 0.313 | 0.387 | 0.816 | 0.778 | 0.601 | 0.567 | 0.303 | 0.202 | 0.196 | 0.169 | 0.152 | 0.184 |
| BEN | 0.75 | 0.686 | 0.677 | 0.742 | 0.812 | 0.699 | 0.818 | 0.869 | 1.02 | 0.893 | 1.04 | 0.719 | 1.12 | 0.824 | 0.628 | 0.261 | 0.49 | 0.457 | 0.638 | 0.435 |
| CAL-12T | 0.704 | 0.611 | 0.701 | 0.726 | 0.749 | 0.83 |  |  | 1.2 | 0.54 | 0.914 | 0.7 | 0.777 | 0.924 | 0.656 | 0.222 | 0.336 | 0.275 | 0.388 | 0.197 |
| COR-L23 | 1.08 | 0.906 | 1.03 | 0.96 | 1.01 | 0.891 | 1 | 1.08 | 1.16 | 0.925 | 1.25 | 0.898 | 0.956 | 0.736 | 0.252 | 0.179 | 0.169 | 0.175 | 0.167 | 0.149 |
| COR-L 105 | 0.322 | 0.307 | 0.325 | 0.366 | 0.356 | 0.725 | 0.583 | 0.723 | 0.783 | 0.666 | 1.08 | 0.934 | 0.921 | 0.874 | 0.396 | 0.324 | 0.338 | 0.315 | 0.339 | 0.351 |
| Calu-6 | 1.08 | 0.966 | 1.12 | 0.94 | 1.07 | 0.943 | 0.946 | 0.912 | 1.02 | 0.915 | 0.989 | 0.897 | 1.04 | 1.01 | 0.869 |  |  |  |  |  |
| ChaGo-K-1 |  |  |  |  |  | 0.87 |  | 0.936 | 1.1 | 0.845 |  |  |  |  |  |  | 0.209 | 0.223 | 0.251 | 0.255 |
| EBC-1 | 0.212 | 0.204 | 0.19 | 0.211 | 0.183 | 0.52 | 0.545 | 0.544 | 0.666 | 0.504 | 0.954 | 0.904 | 0.766 | 0.762 | 0.623 |  |  |  |  |  |
| EKVX | 0.2 | 0.184 | 0.183 | 0.2 | 0.215 | 0.94 | 1.13 | 1.1 | 1.31 | 0.996 | 1.17 | 0.84 | 0.938 | 1.07 | 0.709 | 0.481 | 0.468 | 0.429 | 0.498 | 0.336 |
| EMC-BAC-2 | 0.906 | 0.87 | 0.435 | 0.866 | 0.95 | 0.998 | 1.05 | 1.06 | 1.12 | 0.945 | 0.845 | 0.867 | 0.852 | 0.765 | 0.634 | 0.268 | 0.32 | 0.262 | 0.278 | 0.234 |
| EPLC-272H | 1.05 | 0.791 | 0.933 | 1.02 | 0.168 | 0.772 | 0.777 | 0.958 | 1.03 | 0.738 | 1.25 | 1.1 | 1.16 | 1.05 | 1.08 | 0.168 | 0.225 | 0.253 | 0.236 | 0.388 |
| H3255 | 0.26 | 0.231 | 0.244 | 0.213 | 0.202 | 0.705 | 0.696 | 0.694 | 0.837 | 0.749 | 1.02 | 0.751 | 0.38 | 0.5 | 0.203 | 0.685 | 0.609 | 0.702 | 0.089 | 0.9 |
| HARA | 0.676 | 0.558 | 0.588 | 0.773 | 0.764 | 1.22 | 1.04 | 1.14 | 1.18 | 0.859 | 1.01 | 0.804 | 0.908 | 0.512 | 0.349 | 0.098 | 0.0872 | 0.114 | 0.0978 | 0.118 |
| HCC-15 | 0.824 | 0.772 | 0.798 | 0.878 | 0.937 | 0.835 | 1.02 | 1.15 | 1.13 | 0.835 | 0.786 | 0.853 | 0.857 | 0.954 | 0.743 | 0.343 | 0.411 | 0.316 | 0.315 | 0.273 |
